Where a SMILES comes first, the peptide text is derived from it. [ ]: non-standard residue; d: D form.
Tests used:
[1] = tested on: SK‐BR‐3; experiment: Plasma membrane damage (LDH leakage, Annexin V binding); format: cell-based; settings: SK‐BR‐3, 8 μM peptides, Figure 5a,b
Description: 7 × 10^3–10^4 cells were seeded in a 96‐well plate and left to recover overnight. The cells were treated with 8 μM of peptides and were harvested at two time points. The treated cells were harvested, and the supernatants were collected.
The cells were stained with FITC Annexin V and 7‐AAD (Biolegend) in Annexin V binding buffer (Becton, Dickinson and Company). The binding of Annexin V was checked using flow cytometry.
25 μL of the supernatant was used to check the presence of active lactate dehydrogenase using the CyQUANT LDH Cytotoxicity Assay Kit (Thermo Fisher Scientific) according to the manufacturer's instructions. The absorbance was measured at 490 and 680 nm.

[2] = tested on: Caki‐2, SK‐BR‐3, A‐704 and CCD18‐Co; experiment: FITC‐peptide uptake by flow cytometry; format: cell-based; settings: Caki‐2 and SK‐BR‐3, 5 μM FITC‐peptide, 1 h, Figure 2a
Description: 7 × 10^3–10^4 cells were seeded in a 96‐well plate. On the next day, the cells were incubated with 5 μM of FITC‐conjugated peptides. The cells were harvested at different time points and measured for their fluorescence intensity using BD FACSCanto II (Becton, Dickinson and Company, Franklin Lanes, NJ, USA). Dead cells were excluded by staining the cells with 7‐AAD dye (Biolegend, San Diego, CA, USA).

[3] = attributed to high polarity; cited from earlier work
Excerpt: (§1) Nonetheless, introducing this peptide to human sarcoma and melanoma cell lines at 1% of their inhibitory concentrations (IC50) was described to induce mitochondrial swelling p ...

[4] = tested on: human erythrocytes; settings: cited from earlier work
Excerpt: as §1

Compound | time after peptide addition at which major plasma membrane damage was detected [1] | internalization (fluorescence intensity) of FITC‐peptides [2] | ability to cross the plasma membrane [3] | cytotoxicity towards human erythrocytes [4]
CC(C)C[C@H](N)C(=O)N[C@H](C(=O)N[C@H](C(=O)N[C@@H](CO)C(=O)N1CCC[C@H]1C(=O)N[C@@H](Cc1c[nH]c2ccccc12)C(=O)N[C@@H](Cc1ccc(O)cc1)C(=O)NCC(=O)NCC(=O)N[C@H](CCCCN)C(=O)N[C@H](CC(C)C)C(=O)N[C@H](C)C(=O)N[C@H](CCCCN)C(=O)N[C@H](CC(C)C)C(=O)N[C@H](C)C(=O)N[C@H](CCCCN)C(=O)N[C@H](CCCCN)C(=O)N[C@H](CC(C)C)C(=O)N[C@H](C)C(=O)N[C@H](CCCCN)C(=O)N[C@H](CC(C)C)C(=O)N[C@H](C)C(=O)N[C@H](CCCCN)C(=O)O)C(C)C)[C@@H](C)O [TP‐D‐Tox] (H-LTVSPWYGG[dK][dL][dA][dK][dL][dA][dK][dK][dL][dA][dK][dL][dA][dK]-OH) | ≤ 3 h |  |  | 
CC(C)C[C@H](NC(=O)[C@H](Cc1c[nH]c2ccccc12)NC(=O)[C@@H]1CCCN1C(=O)[C@H](CO)NC(=O)[C@H](Cc1ccc(O)cc1)NC(=O)[C@@H](N)C(C)C)C(=O)N[C@H](C(=O)NCC(=O)NCC(=O)N[C@H](CCCCN)C(=O)N[C@H](CC(C)C)C(=O)N[C@H](C)C(=O)N[C@H](CCCCN)C(=O)N[C@H](CC(C)C)C(=O)N[C@H](C)C(=O)N[C@H](CCCCN)C(=O)N[C@H](CCCCN)C(=O)N[C@H](CC(C)C)C(=O)N[C@H](C)C(=O)N[C@H](CCCCN)C(=O)N[C@H](CC(C)C)C(=O)N[C@H](C)C(=O)N[C@H](CCCCN)C(=O)O)[C@@H](C)O [TP2‐D‐Tox] (H-VYSPWLTGG[dK][dL][dA][dK][dL][dA][dK][dK][dL][dA][dK][dL][dA][dK]-OH) | ≤ 3 h | higher cell penetration |  | 
CC(C)C[C@H](NC(=O)[C@H](CCCCN)NC(=O)[C@H](C)NC(=O)[C@H](CC(C)C)NC(=O)[C@H](CCCCN)NC(=O)[C@H](CCCCN)NC(=O)[C@H](C)NC(=O)[C@H](CC(C)C)NC(=O)[C@H](CCCCN)NC(=O)[C@H](C)NC(=O)[C@H](CC(C)C)NC(=O)[C@@H](N)CCCCN)C(=O)N[C@@H](C)C(=O)N[C@@H](CCCCN)C(=O)O [Tox] |  |  | hardly able to cross the plasma membrane | considerably lower cytotoxicity

— PMC12127091, “Targeting Cancer With Bifunctional Peptides: Mechanism of Cell Entry and Inciting Cell Death” (Cancer Science, 2025)
